# System: MiaPaCa-2 cells
# Experiment: MTS assay of MiaPaCa2 cultures, single 50 μM dose
# Format: cell-based, human
# Conditions: MiaPaCa2, 50 μM
# Protocol: MiaPaCa-2 cells were cultured in complete DMEM media containing 10% fetal bovine serum (FBS) and 1% penicillin-streptomycin, and 1% L-glutamine. BxPc-3 pancreatic cancer cells were cultured in complete RPMI media containing 10% fetal bovine serum (FBS), and 1% penicillin-streptomycin, 1% HEPES buffer, 1% sodium pyruvate and 1% L-glutamine HPDE6-C7 cells were cultured in serum-free keratinocyte SFM media. All cells were maintained at 37° C. in a humidified incubator with 5% CO2. The cells were treated with a single 50 μM dose of vehicle (vehicle only, may be a solvent), T3 alpha (alpha tocotrienol), T3 beta (beta tocotrienol), T3 gamma (gamma tocotrienol), T3 delta (delta tocotrienol), T alpha (alpha tocopherol), T beta (beta tocopherol), TS (tocopherol succinate), GG (geranylgeraniol), SA (succinic acid). A control (no treatment) culture was grown alongside the treatments for comparison. […]
SMILES,rel amt (relative value set to the control) (24 hours),"MTS assay result, run 1 (24 hours)","MTS assay result, run 2 (24 hours)","MTS assay result, run 3 (24 hours)","MTS assay result, run 4 (24 hours)","MTS assay result, run 5 (24 hours)","MTS assay result, run 6 (24 hours)","MTS assay result, run 7 (24 hours)","MTS assay result, run 8 (24 hours)","MTS assay result, run 9 (24 hours)",rel amt (relative value set to the control) (48 hours),"MTS assay result, run 1 (48 hours)","MTS assay result, run 2 (48 hours)","MTS assay result, run 3 (48 hours)","MTS assay result, run 4 (48 hours)","MTS assay result, run 5 (48 hours)","MTS assay result, run 6 (48 hours)","MTS assay result, run 7 (48 hours)","MTS assay result, run 8 (48 hours)","MTS assay result, run 9 (48 hours)",also measured
"Cc1c(C)c2c(c(C)c1OC(=O)CCC(=O)O)CC[C@@](C)(CCC[C@H](C)CCC[C@H](C)CCCC(C)C)O2 [TS, tocopherol succinate]",96,0.24,0.211,0.226,0.172,0.221,0.201,0.214,0.228,0.214,76,0.257,0.254,0.262,0.237,0.258,0.275,0.32,0.337,0.275,"rel amt (relative value set to the control) (72 hours): 207; MTS assay result, run 1 (72 hours): 0.998; MTS assay result, run 2 (72 hours): 0.962; MTS assay result, run 3 (72 hours): 1.016; MTS assay result, run 4 (72 hours): 0.887; MTS assay result, run 5 (72 hours): 0.936; MTS assay result, run 6 (72 hours): 0.897; MTS assay result, run 7 (72 hours): 0.85; MTS assay result, run 8 (72 hours): 0.801; MTS assay result, run 9 (72 hours): 0.918"
"O=C(O)CCC(=O)O [SA, succinic acid]",105,0.24,0.248,0.25,0.245,0.236,0.219,0.214,0.204,0.232,90,0.334,0.335,0.333,0.304,0.32,0.294,0.352,0.348,0.328,"rel amt (relative value set to the control) (72 hours): 114; MTS assay result, run 1 (72 hours): 0.596; MTS assay result, run 2 (72 hours): 0.547; MTS assay result, run 3 (72 hours): 0.566; MTS assay result, run 4 (72 hours): 0.515; MTS assay result, run 5 (72 hours): 0.544; MTS assay result, run 6 (72 hours): 0.44; MTS assay result, run 7 (72 hours): 0.397; MTS assay result, run 8 (72 hours): 0.427; MTS assay result, run 9 (72 hours): 0.504"
Cc1c(O)cc2c(c1C)O[C@](C)(CCC[C@H](C)CCC[C@H](C)CCCC(C)C)CC2 [T gamma],121,0.273,0.261,0.268,0.219,0.264,0.31,0.295,0.263,0.269,81,0.329,0.265,0.304,0.25,0.289,0.341,0.301,0.279,0.295,"rel amt (relative value set to the control) (72 hours): 108; MTS assay result, run 1 (72 hours): 0.5; MTS assay result, run 2 (72 hours): 0.497; MTS assay result, run 3 (72 hours): 0.46; MTS assay result, run 4 (72 hours): 0.505; MTS assay result, run 5 (72 hours): 0.515; MTS assay result, run 6 (72 hours): 0.469; MTS assay result, run 7 (72 hours): 0.429; MTS assay result, run 8 (72 hours): 0.451; MTS assay result, run 9 (72 hours): 0.478"
"CC(C)=CCC/C(C)=C/CC/C(C)=C/CC/C(C)=C/CO [GG, geranylgeraniol]",82,0.186,0.166,0.175,0.18,0.196,0.199,0.184,0.178,0.183,53,0.154,0.194,0.181,0.198,0.236,0.198,0.193,0.192,0.193,"rel amt (relative value set to the control) (72 hours): 158; MTS assay result, run 1 (72 hours): 0.784; MTS assay result, run 2 (72 hours): 0.713; MTS assay result, run 3 (72 hours): 0.757; MTS assay result, run 4 (72 hours): 0.734; MTS assay result, run 5 (72 hours): 0.682; MTS assay result, run 6 (72 hours): 0.665; MTS assay result, run 7 (72 hours): 0.65; MTS assay result, run 8 (72 hours): 0.627; MTS assay result, run 9 (72 hours): 0.702"
